Experimental data taken from the supplement of paper PMC10307832.

Key:
Assay in all cases: relative viability (nuclei count vs DMSO), 5 days (fraction); higher = more cells survive
Vandetanib + Tozasertib = compound: COc1cc2/c(=N/c3ccc(Br)cc3F)nc[nH]c2cc1OCC1CCN(C)CC1 [Vandetanib] + Cc1cc(Nc2cc(N3CCN(C)CC3)nc(Sc3ccc(NC(=O)C4CC4)cc3)n2)n[nH]1 [Tozasertib] (partner 0.1 µM)
Summary of the method: (§1)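 Lung cancer cell lines in 1536-well plates got either a single drug or a fixed anchor-drug dose together with five library-drug doses (not always all listed) in √10 steps, by pin tool, on the day after seeding. Nuclei were counted after 5 days, and relative viability is the treated-to-vehicle ratio of nuclei counts. Values are medians of duplicate plates.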

NVP-TAE684 + Linsitinib = compound: COc1cc(N2CCC(N3CCN(C)CC3)CC2)ccc1Nc1ncc(Cl)c(Nc2ccccc2S(=O)(=O)C(C)C)n1 [NVP-TAE684] + C[C@]1(O)C[C@@H](c2nc(-c3ccc4ccc(-c5ccccc5)nc4c3)c3c(N)nccn32)C1 [Linsitinib] (partner 1 µM)
Summary of the method: as §1

CUDC-101 + Vorinostat = compound: C#Cc1cccc(Nc2ncnc3cc(OC)c(OCCCCCCC(=O)NO)cc23)c1 [CUDC-101] + O=C(CCCCCCC(=O)Nc1ccccc1)NO [Vorinostat] (partner 1 µM)
Summary of the method: as §1

CUDC-101 + Olaparib = compound: C#Cc1cccc(Nc2ncnc3cc(OC)c(OCCCCCCC(=O)NO)cc23)c1 [CUDC-101] + O=C(c1cc(Cc2n[nH]c(=O)c3ccccc23)ccc1F)N1CCN(C(=O)C2CC2)CC1 [Olaparib] (partner 8 µM)
Summary of the method: as §1

Cell Line | relative viability (Vandetanib + Tozasertib; first compound 0.02 µM) | relative viability (Vandetanib + Tozasertib; first compound 0.06325 µM) | relative viability (Vandetanib + Tozasertib; first compound 0.2 µM) | relative viability (Vandetanib + Tozasertib; first compound 0.6325 µM) | relative viability (Vandetanib + Tozasertib; first compound 2 µM) | relative viability (NVP-TAE684 + Linsitinib; first compound 0.2 µM) | relative viability (NVP-TAE684 + Linsitinib; first compound 2 µM) | relative viability (CUDC-101 + Vorinostat; first compound 0.01 µM) | relative viability (CUDC-101 + Vorinostat; first compound 0.03162 µM) | relative viability (CUDC-101 + Vorinostat; first compound 0.1 µM) | relative viability (CUDC-101 + Vorinostat; first compound 0.3162 µM) | relative viability (CUDC-101 + Vorinostat; first compound 1 µM) | relative viability (CUDC-101 + Olaparib; first compound 0.01 µM) | relative viability (CUDC-101 + Olaparib; first compound 0.03162 µM) | relative viability (CUDC-101 + Olaparib; first compound 0.1 µM) | relative viability (CUDC-101 + Olaparib; first compound 0.3162 µM) | relative viability (CUDC-101 + Olaparib; first compound 1 µM) | relative viability (NVP-TAE684 + Linsitinib; first compound 0.6325 µM)
201T | 0.927 | 0.992 | 1.01 | 0.92 | 0.938 | 1.1 | 0.925 | 1.02 | 0.954 | 0.937 | 0.982 | 0.842 | 0.867 | 0.817 | 0.806 | 0.8 | 0.793 | –
A549 | – | – | – | – | – | 0.539 | 0.532 | – | – | – | – | – | 0.415 | 0.24 | 0.355 | 0.417 | 0.286 | 0.603
A-427 | 0.215 | 0.248 | 0.219 | 0.155 | 0.223 | 1.22 | 1.07 | 0.862 | 0.81 | 0.854 | 0.817 | 0.433 | 0.711 | 0.671 | 0.722 | 0.694 | 0.607 | –
ABC-1 | 0.177 | 0.173 | 0.189 | 0.183 | 0.117 | 0.825 | 0.358 | 1.05 | 0.988 | 1.17 | 0.815 | 0.318 | 0.908 | 0.767 | 1.14 | 0.922 | 0.424 | 0.742
BEN | 0.582 | 0.464 | 0.521 | 0.462 | 0.452 | 0.804 | 0.848 | 0.656 | 0.557 | 0.573 | 0.538 | 0.386 | 0.91 | 0.853 | 1.11 | 0.785 | 0.691 | 0.904
CAL-12T | 0.346 | 0.314 | 0.148 | 0.249 | 0.278 | 0.726 | 0.541 | 0.761 | 0.803 | 0.919 | 0.828 | 0.487 | 0.734 | 0.681 | 0.752 | 0.772 | 0.668 | 0.767
COR-L23 | 0.189 | 0.241 | 0.218 | 0.223 | 0.222 | 0.871 | 0.419 | 0.35 | 0.581 | 0.394 | 0.22 | 0.0997 | 0.402 | 0.374 | 0.331 | 0.266 | 0.294 | 0.937
COR-L 105 | 0.331 | 0.355 | 0.223 | 0.317 | 0.286 | 0.915 | 0.625 | 0.921 | 0.663 | 0.831 | 0.611 | 0.371 | 0.703 | 0.74 | 0.759 | 0.697 | 0.77 | –
Calu-6 | – | – | – | – | – | 0.805 | 0.634 | – | – | – | – | – | 0.545 | 0.503 | 0.522 | 0.484 | 0.332 | 0.935
ChaGo-K-1 | 0.2 | 0.239 | 0.248 | 0.212 | 0.215 | – | – | 0.756 | 0.727 | 0.79 | 0.698 | 0.578 | 0.41 | 0.444 | 0.42 | 0.377 | 0.293 | –
EBC-1 | – | – | – | – | – | 0.784 | 0.745 | – | – | – | – | – | 0.744 | 0.674 | 0.683 | 0.666 | 0.26 | 0.785
EKVX | 0.431 | 0.424 | 0.398 | 0.409 | 0.27 | 0.896 | 0.709 | 0.658 | 0.658 | 0.623 | 0.617 | 0.363 | 1.06 | 0.737 | 0.71 | 0.961 | 0.624 | 0.897
EMC-BAC-2 | 0.317 | 0.307 | 0.151 | 0.319 | 0.286 | 0.771 | 0.51 | 0.506 | 0.449 | 0.507 | 0.309 | 0.191 | 0.493 | 0.485 | 0.485 | 0.532 | 0.376 | –
EPLC-272H | 0.25 | – | 0.285 | 0.282 | 0.306 | 1.08 | 1.3 | 0.345 | 0.38 | 0.464 | 0.229 | 0.118 | 0.885 | 0.703 | 0.596 | 0.448 | 0.365 | –
H3255 | 0.469 | 0.727 | 0.579 | 0.554 | 0.345 | 0.903 | 0.69 | 0.824 | 0.786 | – | 1.07 | 0.368 | 0.653 | 0.547 | 0.512 | 0.442 | 0.264 | 0.927
HARA | 0.111 | 0.118 | 0.0738 | 0.466 | 0.0849 | 0.985 | 0.474 | 0.505 | 0.678 | 0.577 | 0.478 | 0.22 | 1 | 0.844 | – | 0.418 | 0.154 | 0.929
HCC-15 | 0.555 | 0.416 | 0.07 | 0.35 | 0.347 | 0.84 | 0.601 | 0.828 | 0.802 | 0.77 | 0.716 | 0.448 | 0.684 | 0.726 | 0.652 | 0.665 | 0.499 | 0.866
HCC-44 | 0.924 | 0.851 | 1.01 | 1.05 | 0.949 | 0.785 | 0.482 | 1.04 | 1.2 | 1.13 | 1.02 | 1.11 | 0.964 | 1.01 | 0.893 | 0.972 | 1.07 | 0.674
HCC-78 | 0.502 | 0.451 | 0.41 | 0.548 | 0.404 | 0.403 | 0.294 | 0.441 | 0.413 | 0.46 | 0.377 | 0.259 | 1.01 | 0.688 | 0.821 | 0.584 | 0.341 | 0.359
HCC-366 | 0.125 | 0.112 | 0.0453 | 0.174 | 0.0919 | 0.605 | 0.455 | 0.393 | 0.312 | 0.29 | 0.313 | 0.254 | 0.363 | 0.353 | 0.325 | 0.345 | 0.245 | 0.621
